Data on eight compounds can be found in ChEMBL document CHEMBL1777785, “A novel approach for predicting P-glycoprotein (ABCB1) inhibition using molecular interaction fields” (J Med Chem, 2011).

The target in one data set is T1, ATP-dependent translocase ABCB1 (Homo sapiens, UniProt P08183). The conditions noted are these: l5178, 20 min, 100 µM.
T1 sequence (P08183 whole entry): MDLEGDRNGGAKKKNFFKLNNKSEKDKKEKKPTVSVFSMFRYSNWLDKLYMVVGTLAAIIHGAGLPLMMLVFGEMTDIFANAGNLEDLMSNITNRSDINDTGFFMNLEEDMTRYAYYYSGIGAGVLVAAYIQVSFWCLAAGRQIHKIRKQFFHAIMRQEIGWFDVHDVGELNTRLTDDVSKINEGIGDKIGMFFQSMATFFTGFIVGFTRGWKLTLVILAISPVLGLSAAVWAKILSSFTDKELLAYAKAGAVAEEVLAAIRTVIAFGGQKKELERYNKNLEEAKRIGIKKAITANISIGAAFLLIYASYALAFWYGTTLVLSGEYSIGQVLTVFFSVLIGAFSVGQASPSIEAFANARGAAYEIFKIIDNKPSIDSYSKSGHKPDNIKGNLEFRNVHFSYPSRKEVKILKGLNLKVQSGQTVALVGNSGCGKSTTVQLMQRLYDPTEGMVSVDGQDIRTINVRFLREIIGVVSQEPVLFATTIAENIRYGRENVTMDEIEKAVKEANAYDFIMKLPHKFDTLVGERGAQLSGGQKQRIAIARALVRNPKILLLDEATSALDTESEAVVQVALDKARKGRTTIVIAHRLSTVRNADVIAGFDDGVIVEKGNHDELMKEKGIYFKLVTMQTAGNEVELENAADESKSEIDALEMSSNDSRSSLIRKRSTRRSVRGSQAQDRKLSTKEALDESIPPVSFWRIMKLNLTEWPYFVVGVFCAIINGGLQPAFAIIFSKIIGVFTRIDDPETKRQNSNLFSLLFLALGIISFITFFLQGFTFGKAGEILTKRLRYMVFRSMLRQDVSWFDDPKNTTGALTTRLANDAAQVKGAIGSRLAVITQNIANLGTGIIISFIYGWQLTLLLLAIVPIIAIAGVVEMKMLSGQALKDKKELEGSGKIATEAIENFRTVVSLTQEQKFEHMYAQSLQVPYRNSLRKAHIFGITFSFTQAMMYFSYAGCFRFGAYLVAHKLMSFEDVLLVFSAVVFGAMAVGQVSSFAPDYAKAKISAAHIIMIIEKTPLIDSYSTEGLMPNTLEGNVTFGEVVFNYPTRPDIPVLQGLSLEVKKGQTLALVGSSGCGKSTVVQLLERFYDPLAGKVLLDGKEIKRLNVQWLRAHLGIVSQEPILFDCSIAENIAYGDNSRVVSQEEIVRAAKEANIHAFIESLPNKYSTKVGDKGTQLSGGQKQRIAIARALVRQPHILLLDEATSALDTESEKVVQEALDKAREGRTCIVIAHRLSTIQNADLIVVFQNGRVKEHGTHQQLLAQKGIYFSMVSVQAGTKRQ
Take `O=C1Cc2cc(CCN3CCN(c4nsc5ccccc45)CC3)c(Cl)cc2N1` [ZIPRASIDONE]: the Alpha max turned out to be 0.19.

In turn, `C=CCc1ccccc1OCC(O)CNC(C)C` (centres undefined) [ALPRENOLOL] came in with an Alpha max of 0.05.

Regarding `O=C1NCCN1CCN1CCC(c2cn(-c3ccc(F)cc3)c3ccc(Cl)cc23)CC1` [SERTINDOLE], the Alpha max was 0.74.

Take `CCN(CC)CCCN(c1ccccc1)C1Cc2ccccc2C1` [APRINDINE]: the Alpha max stood at 0.16.

In turn, `O=C1CCc2ccc(OCCCCN3CCN(c4cccc(Cl)c4Cl)CC3)cc2N1` [ARIPIPRAZOLE] had an Alpha max of 0.99.

As for `CC(C)[C@H]1CC[C@H](C(=O)N[C@H](Cc2ccccc2)C(=O)O)CC1` [NATEGLINIDE], the Alpha max stood at 0.

As to `CCOc1cc(CC(=O)N[C@@H](CC(C)C)c2ccccc2N2CCCCC2)ccc1C(=O)O` [REPAGLINIDE], the Alpha max stood at 0.35.

Turning to `CC1(C)S[C@@H]2[C@H](NC(=O)[C@H](C(=O)O)c3ccsc3)C(=O)N2[C@H]1C(=O)O` [TICARCILLIN], the Alpha max is recorded as 0.

Another data set deals with T1, ATP-dependent translocase ABCB1.
Conditions: not given
The compound `O=C1NCCN1CCN1CCC(c2cn(-c3ccc(F)cc3)c3ccc(Cl)cc23)CC1` [SERTINDOLE] displayed an IC50 of 6.5 µM. That is a single-digit micromolar value.
